In general, Ki refers to the equilibrium dissociation constant of an inhibitor or competing ligand from its target.

Ki data for 25 molecules are collected here from US9561231B2 (AbbVie Inc., priority 2012, dated 2017).

The target of assay [1] is T1, first (BD1: amino acids K57-E168) bromodomain of BRD4 (Homo sapiens, UniProt O60885).
T1 construct: His-tagged first (BD1: amino acids K57-E168)
As to the kind of experiment: TR-FRET bromodomain binding assay, BRD4 BD1. Particulars: TR-FRET assay protocol (A-G, compound concentration range); Ki calculated from IC50, probe Kd and probe concentration; read-out: TR-FRET Binding Ki: BRD4 (BDI_K57-E168). As to the method: (§1) A time-resolved fluorescence resonance energy transfer (TR-FRET) assay was used to determine the affinities of compounds of the Examples listed in Table 1 for each bromodomain of BRD4. His-tagged first (BD1: amino acids K57-E168) and second (BD2: amino acids E352-E168) bromodomains of BRD4 were expressed and purified. An Alexa647-labeled BET-inhibitor was used as the fluorescent probe in the assay.
(§2) Compound dilution series were prepared in DMSO via an approximately 3-fold serial dilution from one of the following:
(§3) or 5-fold serial dilution from one of the following:
(§4) Assay method A: 2.5 mM-800 nM
(§5) For Assay methods A, C, D, and F: Compounds were then diluted 6:100 in assay buffer (20 mM Sodium Phosphate, pH 6.0, 50 mM NaCl, 1 mM Ethylenediaminetetraacetic acid, 0.01% Triton X-100, 1 mM DL-Dithiothreitol) to yield 3× working solutions. […] of this solution were added to the assay plate to reach a final volume of 18 μL.
(§6) TR-FRET data were normalized to the means of 24 no-compound controls (“high”) and 8 controls containing 1 μM un-labeled probe (“low”). Percent inhibition was plotted as a function of compound concentration and the data were fit with the 4 parameter logistic equation to obtain IC50s. Inhibition constants (Ki) were calculated from the IC50s, probe Kd and probe concentration. Typical Z′ values were between 0.65 and 0.75.

The target of assay [2] is T2, second (BD2: amino acids E352-E168) bromodomain of BRD4 (Homo sapiens, UniProt O60885).
T2 construct: protocol
As to the kind of experiment: TR-FRET bromodomain binding assay, BRD4 BD2. Particulars: TR-FRET assay protocol (A-G, compound concentration range); Ki calculated from IC50, probe Kd and probe concentration; read-out: TR-FRET Binding Ki: BRD4 (BDII_E352-M457). Here is the method:
as §1, §2, §3, §4, §5, §6

For `CC(C)Cc1ccc(-c2cc(=O)n(C)nc2-c2ccccc2Oc2ccccc2)cc1` [Example 96, 2-methyl-5-[4-(2-methylpropyl)phenyl]-6-(2-phenoxyphenyl)pyridazin-3(2H)-one], the Ki in assay [1] is 8.33 µM; in assay [2], 13.4 µM.
Take `CCOC(=O)Cc1ccc(-c2cc(=O)n(C)nc2-c2ccccc2Oc2ccccc2)cc1` [Example 97, ethyl{4-[1-methyl-6-oxo-3-(2-phenoxyphenyl)-1,6-dihydropyridazin-4-yl]phenyl}acetate]: the Ki in assay [1] was 0.561 µM; in assay [2], 0.176 µM.
`COC(=O)c1ccc(-c2cc(=O)n(C)nc2-c2ccccc2Oc2ccccc2)cc1` [Example 102, methyl 4-[1-methyl-6-oxo-3-(2-phenoxyphenyl)-1,6-dihydropyridazin-4-yl]benzoate]: the values for the Ki in assay [1] and in assay [2] were 2.6 µM and 0.96 µM, respectively.
In the same order, the values of `Cn1nc(-c2ccccc2Oc2ccccc2)c(-c2ccncc2)cc1=O` [Example 104, 2-methyl-6-(2-phenoxyphenyl)-5-(pyridin-4-yl)pyridazin-3(2H)-one] are 1.6 µM and 0.562 µM.
`CC(=O)Nc1cccc(-c2cc(=O)n(C)nc2-c2ccccc2Oc2ccccc2)c1` [Example 106, N-{3-[1-methyl-6-oxo-3-(2-phenoxyphenyl)-1,6-dihydropyridazin-4-yl]phenyl}acetamide]: the Ki in assay [1] was 0.176 µM; in assay [2], 0.925 µM.
With `CCOc1ccc(-c2cc(=O)n(C)nc2-c2ccccc2Oc2ccccc2)cc1F` [Example 107, 5-(4-ethoxy-3-fluorophenyl)-2-methyl-6-(2-phenoxyphenyl)pyridazin-3(2H)-one], the values for the Ki in assay [1] and in assay [2] were 1.76 µM and 2.58 µM, respectively.
In the same order, the values of `CN(C)C(=O)c1ccc(-c2cc(=O)n(C)nc2-c2ccccc2Oc2ccccc2)cc1` [Example 108, N,N-dimethyl-4-[1-methyl-6-oxo-3-(2-phenoxyphenyl)-1,6-dihydropyridazin-4-yl]benzamide] are 0.41 µM and 0.327 µM.
In the same order, the values of `CN(C)C(=O)c1cccc(-c2cc(=O)n(C)nc2-c2ccccc2Oc2ccccc2)c1` [Example 109, N,N-dimethyl-3-[1-methyl-6-oxo-3-(2-phenoxyphenyl)-1,6-dihydropyridazin-4-yl]benzamide] are 1.26 µM and 1.53 µM.
The corresponding values for `CC(C)COc1cccc(-c2cc(=O)n(C)nc2-c2ccccc2Oc2ccccc2)c1` [Example 110, 2-methyl-5-[3-(2-methylpropoxy)phenyl]-6-(2-phenoxyphenyl)pyridazin-3(2H)-one] are over 13 µM and 13.5 µM.
With `CC(C)Oc1ccc(-c2cc(=O)n(C)nc2-c2ccccc2Oc2ccccc2)cc1F` [Example 111, 5-[3-fluoro-4-(propan-2-yloxy)phenyl]-2-methyl-6-(2-phenoxyphenyl)pyridazin-3(2H)-one], the values for the Ki in assay [1] and in assay [2] were 2.47 µM and 1.97 µM, respectively.
Regarding `Cn1nc(-c2ccccc2Oc2ccccc2)c(-c2cnn(Cc3ccccc3)c2)cc1=O` [Example 113, 5-(1-benzyl-1H-pyrazol-4-yl)-2-methyl-6-(2-phenoxyphenyl)pyridazin-3(2H)-one], the Ki in assay [1] is 0.407 µM; in assay [2], 0.317 µM.
For `Cn1nc(-c2ccccc2Oc2ccccc2)c(-c2ccc(C(=O)NC3CC3)cc2)cc1=O` [Example 114, N-cyclopropyl-4-[1-methyl-6-oxo-3-(2-phenoxyphenyl)-1,6-dihydropyridazin-4-yl]benzamide], the results for the Ki in assay [1] and in assay [2] were 0.328 µM and 0.184 µM, respectively.
In the same order, the values of `Cc1n[nH]c(C)c1-c1cc(=O)n(C)nc1-c1ccccc1Oc1ccccc1` [Example 115, 5-(3,5-dimethyl-1H-pyrazol-4-yl)-2-methyl-6-(2-phenoxyphenyl)pyridazin-3(2H)-one] are 11.1 µM and 6.94 µM.
Take `COc1ccc(-c2cc(=O)n(C)nc2-c2ccccc2Oc2ccccc2)cn1` [Example 116, 5-(6-methoxypyridin-3-yl)-2-methyl-6-(2-phenoxyphenyl)pyridazin-3(2H)-one]: the Ki in assay [1] is 1.05 µM; in assay [2], 0.553 µM.
For `CCOc1ccc(-c2cc(=O)n(C)nc2-c2ccccc2Oc2ccccc2)cc1` [Example 117, 5-(4-ethoxyphenyl)-2-methyl-6-(2-phenoxyphenyl)pyridazin-3(2H)-one], the Ki in assay [1] was 1.49 µM; in assay [2], 0.619 µM.
Consider `Cn1nc(-c2ccccc2Oc2ccccc2)c(-c2cncc3ccccc23)cc1=O` [Example 118, 5-(isoquinolin-4-yl)-2-methyl-6-(2-phenoxyphenyl)pyridazin-3(2H)-one], for which the Ki in assay [1] is over 13 µM; in assay [2] it was 17.2 µM.
In the case of `Cn1nc(-c2ccccc2Oc2ccccc2)c(-c2cccc(NS(C)(=O)=O)c2)cc1=O` [Example 120, N-{3-[1-methyl-6-oxo-3-(2-phenoxyphenyl)-1,6-dihydropyridazin-4-yl]phenyl}methanesulfonamide], the figures for the Ki in assay [1] and in assay [2] were 0.611 µM and 1.19 µM, respectively.
Consider `CC(=O)Nc1cncc(-c2cc(=O)n(C)nc2-c2ccccc2Oc2ccccc2)c1` [Example 121, N-{5-[1-methyl-6-oxo-3-(2-phenoxyphenyl)-1,6-dihydropyridazin-4-yl]pyridin-3-yl}acetamide], for which the Ki in assay [1] is 1.12 µM; in assay [2] it was 2.96 µM.
In the same order, the values of `CNC(=O)c1cncc(-c2cc(=O)n(C)nc2-c2ccccc2Oc2ccccc2)c1` [Example 122, N-methyl-5-[1-methyl-6-oxo-3-(2-phenoxyphenyl)-1,6-dihydropyridazin-4-yl]pyridine-3-carboxamide] are 8.56 µM and 4.52 µM.
On to `CC(C)Oc1ccc(-c2cc(=O)n(C)nc2-c2ccccc2Oc2ccccc2)cn1` [Example 123, 2-methyl-6-(2-phenoxyphenyl)-5-[6-(propan-2-yloxy)pyridin-3-yl]pyridazin-3(2H)-one], for which the values for the Ki in assay [1] and in assay [2] were 7.26 µM and 1.17 µM, respectively.
In the same order, the values of `CC(=O)c1cccc(-c2cc(=O)n(C)nc2-c2ccccc2Oc2ccccc2)c1F` [Example 124, 5-(3-acetyl-2-fluorophenyl)-2-methyl-6-(2-phenoxyphenyl)pyridazin-3(2H)-one] are 8.12 µM and 17.7 µM.
In the same order, the values of `COc1ccc(-c2cc(=O)n(C)nc2-c2ccccc2Oc2ccccc2)c(OC)n1` [Example 125, 5-(2,6-dimethoxypyridin-3-yl)-2-methyl-6-(2-phenoxyphenyl)pyridazin-3(2H)-one] are over 13 µM and 16 µM.
`COC(=O)c1ccccc1-c1cc(=O)n(C)nc1-c1ccccc1Oc1ccccc1` [Example 126, methyl 2-[1-methyl-6-oxo-3-(2-phenoxyphenyl)-1,6-dihydropyridazin-4-yl]benzoate]: the Ki is 9.34 µM in assay [1] and over 22.2 µM in assay [2].
`CNC(=O)c1cccc(-c2cc(=O)n(C)nc2-c2ccccc2Oc2ccccc2)c1` [Example 128, N-methyl-3-[1-methyl-6-oxo-3-(2-phenoxyphenyl)-1,6-dihydropyridazin-4-yl]benzamide]: the Ki in assay [1] was 1.64 µM; in assay [2], 0.376 µM.
The corresponding values for `CC(C)CCn1cc(-c2cc(=O)n(C)nc2-c2ccccc2Oc2ccccc2)cn1` [Example 129, 2-methyl-5-[1-(3-methylbutyl)-1H-pyrazol-4-yl]-6-(2-phenoxyphenyl)pyridazin-3(2H)-one] are 0.52 µM and 0.264 µM.
